In EP0521310A2, “Solid dispersion tablets containing 1,4-dihydropyridine derivatives and process for the preparation thereof” (FUJIREBIO Inc., priority 1991, dated 1993):

Assay: thermal analysis (DSC) of solid dispersions, conversion to amorphous form
Format: physicochemical
Experimental: HPC and FRC8653, in the propotion of 1, 2, 3, 4 or 5 parts by weight of HPC based on one part by weight of FRC8653, were added to the mixed solvent of methanol/dichloromethane and dissolved, followed by removal of the solvent and drying. The samples obtained were subjected to thermal analysis (DSC).
Both HP55 (Shin-Etsu Chemical Co.) and FRC8653, in the proportion of 1, 2, 3, 4 or 5 parts by weight of HP55 based on one part by weight of FRC8653, were added to the mixed solvent of methanol/dichloromethane and dissolved, followed by removal of the solvent and drying in order to subject to thermal analysis (DSC). The amount of HP55 necessary to convert the FRC8653 into its amorphous form was 2 parts by weight or more per one part by weight of FRC8653.

amount of HPC required to convert FRC8653 into its amorphous form (Fig. 3): ≥ 4 parts by weight per one part b
amount of HP55 necessary to convert the FRC8653 into its amorphous form (Fig. 6): ≥ 2 parts by weight per one part b
Structure (SMILES): COCCOC(=O)C1=C(C)NC(C)=C(C(=O)OC/C=C/c2ccccc2)C1c1cccc([N+](=O)[O-])c1 (racemic) [FRC8653, 2-methoxyethyl (E)-3-phenyl-2-propen-1-yl (+/-)-1,4-dihydro-2,6-dimethyl-4-(3-nitrophenyl)-3,5-pyridinedicarboxylate]
